Columns and labels:
[1] = molecular target: T1, Protein deacetylase HDAC6 (Homo sapiens, UniProt Q9UBN7); test: Inhibition of human recombinant HDAC6 using Boc-Lys(Ac)-AMC as substrate after 30 mins by fluorescence assay
T1 sequence (Q9UBN7 whole entry): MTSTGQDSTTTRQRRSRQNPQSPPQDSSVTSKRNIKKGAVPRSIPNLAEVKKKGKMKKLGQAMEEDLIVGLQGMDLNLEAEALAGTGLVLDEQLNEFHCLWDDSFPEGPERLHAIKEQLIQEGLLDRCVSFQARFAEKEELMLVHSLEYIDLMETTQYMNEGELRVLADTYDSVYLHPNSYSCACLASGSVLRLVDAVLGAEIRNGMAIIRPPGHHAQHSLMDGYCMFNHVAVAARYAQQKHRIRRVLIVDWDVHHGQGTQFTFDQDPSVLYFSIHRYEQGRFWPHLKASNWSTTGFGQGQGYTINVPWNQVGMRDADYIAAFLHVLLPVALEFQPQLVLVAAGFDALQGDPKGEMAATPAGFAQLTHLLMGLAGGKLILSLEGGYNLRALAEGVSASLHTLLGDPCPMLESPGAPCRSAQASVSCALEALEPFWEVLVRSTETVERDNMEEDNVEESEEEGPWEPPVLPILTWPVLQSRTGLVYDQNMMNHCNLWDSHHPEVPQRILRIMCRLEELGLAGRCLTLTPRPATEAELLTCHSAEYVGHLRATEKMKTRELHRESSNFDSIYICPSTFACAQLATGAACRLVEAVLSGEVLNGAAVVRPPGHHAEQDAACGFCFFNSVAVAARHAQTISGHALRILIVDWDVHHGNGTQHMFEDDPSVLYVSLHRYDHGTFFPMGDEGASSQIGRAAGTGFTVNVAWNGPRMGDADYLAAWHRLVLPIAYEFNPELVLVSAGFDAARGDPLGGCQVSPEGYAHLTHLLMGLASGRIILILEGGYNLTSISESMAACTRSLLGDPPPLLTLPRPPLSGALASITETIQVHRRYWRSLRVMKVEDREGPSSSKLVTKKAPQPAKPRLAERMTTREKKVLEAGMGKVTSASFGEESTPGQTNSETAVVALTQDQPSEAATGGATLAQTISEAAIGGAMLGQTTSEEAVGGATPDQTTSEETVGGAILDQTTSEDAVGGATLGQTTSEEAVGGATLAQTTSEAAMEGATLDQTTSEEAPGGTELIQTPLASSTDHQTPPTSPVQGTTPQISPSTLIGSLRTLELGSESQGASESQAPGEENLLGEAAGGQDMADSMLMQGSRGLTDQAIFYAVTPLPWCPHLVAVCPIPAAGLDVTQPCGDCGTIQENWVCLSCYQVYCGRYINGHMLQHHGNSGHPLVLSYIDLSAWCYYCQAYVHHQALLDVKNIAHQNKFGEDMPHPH

[2] = molecular target: Histone deacetylase 3 (Homo sapiens, UniProt O15379); test: Inhibition of human recombinant HDAC3 using Boc-Lys(Ac)-AMC as substrate after 30 mins by fluorescence assay
Sequence of Histone deacetylase 3 (O15379 whole entry): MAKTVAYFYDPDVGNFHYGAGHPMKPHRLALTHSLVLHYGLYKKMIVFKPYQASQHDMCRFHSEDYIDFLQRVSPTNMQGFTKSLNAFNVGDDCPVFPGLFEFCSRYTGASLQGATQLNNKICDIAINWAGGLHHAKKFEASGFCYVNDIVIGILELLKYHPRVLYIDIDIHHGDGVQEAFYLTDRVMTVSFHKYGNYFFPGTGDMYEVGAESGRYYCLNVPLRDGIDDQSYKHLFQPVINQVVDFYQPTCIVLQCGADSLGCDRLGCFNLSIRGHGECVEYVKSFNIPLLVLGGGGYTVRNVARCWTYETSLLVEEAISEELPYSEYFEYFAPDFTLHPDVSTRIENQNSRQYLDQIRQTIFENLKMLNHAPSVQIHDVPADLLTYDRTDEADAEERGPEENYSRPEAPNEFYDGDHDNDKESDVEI

[3] = tested on: MCF7; test: Antiproliferative activity against human MCF7 cells treated for 48 hrs followed by refreshed every 96 hrs measured on day 10 by Lowry assay; assay type: functional, cell-based
[4] = molecular target: T2, Estrogen receptor (Homo sapiens, UniProt P03372); test: Antagonist activity at ERalpha in human T47D-KBLuc cells assessed as inhibition of E2-induced transcriptional activity by luciferase reporter gene assay; assay type: cell-based
T2 sequence (P03372 whole entry): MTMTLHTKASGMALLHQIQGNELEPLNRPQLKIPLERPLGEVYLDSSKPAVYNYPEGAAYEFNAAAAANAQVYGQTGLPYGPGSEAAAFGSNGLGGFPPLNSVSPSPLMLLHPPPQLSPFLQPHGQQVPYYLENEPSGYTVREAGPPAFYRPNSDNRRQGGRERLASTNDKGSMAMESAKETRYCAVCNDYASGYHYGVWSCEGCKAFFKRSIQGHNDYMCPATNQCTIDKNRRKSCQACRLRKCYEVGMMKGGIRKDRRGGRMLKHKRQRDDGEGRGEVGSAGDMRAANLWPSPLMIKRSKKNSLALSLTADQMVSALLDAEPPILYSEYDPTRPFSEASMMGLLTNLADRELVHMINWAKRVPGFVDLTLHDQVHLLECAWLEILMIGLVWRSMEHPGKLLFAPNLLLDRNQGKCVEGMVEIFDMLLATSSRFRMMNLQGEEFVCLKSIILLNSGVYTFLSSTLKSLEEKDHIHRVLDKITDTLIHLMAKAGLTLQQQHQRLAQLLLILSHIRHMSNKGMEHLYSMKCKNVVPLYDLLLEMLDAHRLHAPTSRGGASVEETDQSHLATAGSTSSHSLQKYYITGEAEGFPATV

[5] = molecular target: T3, Estrogen receptor (Homo sapiens) (UniProt P03372); test: (§1) Antagonist activity at luciferase-fused ERalpha in human HEK293 cells expressing eYFP assessed as reduction of E2-induced estrogenic activity after 2 hrs by BRET assay; assay type: cell-based
T3 sequence (whole entry): T2 sequence (P03372 whole entry)

[6] = molecular target: T2, Estrogen receptor; test: as §1; assay type: cell-based
[7] = tested on: MDA-MB-231; test: Antiproliferative activity against human MDA-MB-231 cells treated for 48 hrs followed by refreshed every 96 hrs measured on day 10 by Lowry assay; assay type: functional, cell-based

Structure (SMILES) | IC50 [1] [nM] | IC50 [2] [nM] | IC50 [3] [nM] | IC50 [4] [nM] | inhibition [5] | IC50 [6] [nM] | IC50 [7] [nM]
C[C@]12CC[C@@H]3c4ccc(O)cc4C[C@@H](CCCCCCCCCCC(=O)Nc4ccccc4N)[C@H]3[C@@H]1CC[C@@H]2O | > 50000 | 3180 | 1900 | 720 | Dose-dependent effect | 210 | –
CCCCN(O)C(=O)c1cccc(NC(=O)CCCCCS[C@@H]2Cc3cc(O)ccc3[C@H]3CC[C@]4(C)[C@@H](O)CC[C@H]4[C@@H]32)c1 | 43700 | 1550 | 340 | 180 | Dose-dependent effect | 50 | 5020
CCCCN(C)C(=O)CCCCCCCCCC[C@@H]1Cc2cc(O)ccc2[C@H]2CC[C@]3(C)[C@@H](O)CC[C@H]3[C@H]12 | – | – | 930 | – | – | – | –
CC/C(=C(\c1ccc(O)cc1)c1ccc(OCCN(C)C)cc1)c1ccccc1 [AFIMOXIFENE] | – | – | 150 | – | – | – | –
C[C@]12CC[C@@H]3c4ccc(O)cc4C[C@@H](CCCCCCCCCCC(=O)NO)[C@H]3[C@@H]1CC[C@@H]2O | 1150 | 960 | 2930 | 1060 | Dose-dependent effect | 510 | –
CCCCN(O)C(=O)CCCCCCCCCC[C@@H]1Cc2cc(O)ccc2[C@H]2CC[C@]3(C)[C@@H](O)CC[C@H]3[C@H]12 | > 50000 | > 5000 | 9110 | 2100 | Dose-dependent effect | 2550 | –
Nc1ccccc1NC(=O)c1ccc(CNC(=O)OCc2cccnc2)cc1 [ENTINOSTAT] | – | – | 350 | – | – | – | –
